Experiments:
[1] = target: T1, human GPCR sphingosine 1-phosphate receptor 1 (Homo sapiens, UniProt P21453); experiment: S1PR1 selectivity Ca2+ flux assay (antagonist readout); assay type: cell-based; conditions: antagonist readout, CHO cells overexpressing human S1PR1 and Gq, S1P at EC80 (6 nM); read-out: S1P1 EC50 (nM), S1P1 antagonist EC50
T1 construct: host or cells: CHO
How it was run: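 Antagonist mode: S1P challenge follows 15 min compound preincubation at 37 °C. Cells are CHO stably expressing human S1PR1, serum-starved 1 h (0.1% FAF BSA), loaded with Fluo 8. Peak-over-baseline fluorescence ratio is normalized to positive/negative controls; IC50 from logistic curve fit.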

HFL-1 cells [2] = experiment: IL8 assay in the presence of Human Serum Albumin; conditions: HFL1, read-out: HSA IL8 EC50
S1PR2 = target: T2, S1PR2 (Homo sapiens, UniProt O95136); experiment: S1PR2 binding assay (competition with radioactively labeled S1P, SpA); conditions: membranes from stable cell line over expressing S1PR2, SpA beads; read-out: S1P2 EC50 (nM), S1PR2 binding EC50
T2 construct: expressed in transfected cells
T2 sequence (O95136 whole entry): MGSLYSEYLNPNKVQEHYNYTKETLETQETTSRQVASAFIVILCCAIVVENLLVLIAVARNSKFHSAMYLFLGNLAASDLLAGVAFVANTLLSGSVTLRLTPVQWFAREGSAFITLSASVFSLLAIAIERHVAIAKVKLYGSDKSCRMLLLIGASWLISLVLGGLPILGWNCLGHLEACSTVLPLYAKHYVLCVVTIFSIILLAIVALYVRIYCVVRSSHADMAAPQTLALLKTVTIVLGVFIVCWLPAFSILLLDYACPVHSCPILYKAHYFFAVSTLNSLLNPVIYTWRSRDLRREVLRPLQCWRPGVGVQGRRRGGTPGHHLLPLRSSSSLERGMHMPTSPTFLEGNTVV
How it was run: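 Scintillation proximity read-out after 2 h room-temperature incubation of compound, [3H]S1P and S1PR2-overexpressing cell membranes on WGA-coated beads. Buffer: 20 mM Tris pH 7.5, 100 mM NaCl, 10 mM MgCl2, 1 mM Na3VO4, 0.4% fatty-acid-free BSA; plates counted immediately after centrifugation.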

[3] = target: T3, human GPCR sphingosine 1-phosphate receptor 2 (Homo sapiens, UniProt O95136); experiment: S1PR2 antagonist Ca2+ flux assay; assay type: cell-based; conditions: antagonist mode, CHO-S1PR2 cells, S1P at EC80, Ca2+ fluorescence; read-out: S1P2 EC50 (nM), S1P2 antagonist EC50
T3 construct: host or cells: CHO
T3 sequence (O95136 whole entry): as above
How it was run: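 Antagonist mode: 15 min after compound addition, S1P (EC80) stimulates Fluo8-loaded, 1 h-starved CHO-S1PR2 cells, Ca2+ read over 3 min; a prior 3-min read checks compound agonism. EC50 from peak/baseline fluorescence ratio, normalised versus vehicle and S1P EC50 (antagonist) or EC100 (agonist).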

HFL-1 cells [4] = experiment: IL-8 production assay (S1P induced IL-8); assay type: cell-based; conditions: Homo sapiens, HFL1; S1P (1 μM) induced IL-8 in HFL-1 cells, starvation medium without HSA; read-out: IL8 EC50
How it was run: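 HFL-1 fibroblasts in low-serum medium were pretreated 1 h with a 10-point 1/3 series of compound starting at 30 μM (0.3% DMSO).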

[5] = target: T4, human GPCR sphingosine 1-phosphate receptor 5 (Homo sapiens, UniProt Q9H228); experiment: S1PR5 selectivity Ca2+ flux assay (antagonist readout); assay type: cell-based; conditions: CHO cells overexpressing human S1PR5 and Gq, agonist at EC80 (20 nM), read-out: S1P5 EC50 (nM), S1P5 antagonist EC50
T4 construct: host or cells: CHO
T4 sequence (Q9H228 whole entry): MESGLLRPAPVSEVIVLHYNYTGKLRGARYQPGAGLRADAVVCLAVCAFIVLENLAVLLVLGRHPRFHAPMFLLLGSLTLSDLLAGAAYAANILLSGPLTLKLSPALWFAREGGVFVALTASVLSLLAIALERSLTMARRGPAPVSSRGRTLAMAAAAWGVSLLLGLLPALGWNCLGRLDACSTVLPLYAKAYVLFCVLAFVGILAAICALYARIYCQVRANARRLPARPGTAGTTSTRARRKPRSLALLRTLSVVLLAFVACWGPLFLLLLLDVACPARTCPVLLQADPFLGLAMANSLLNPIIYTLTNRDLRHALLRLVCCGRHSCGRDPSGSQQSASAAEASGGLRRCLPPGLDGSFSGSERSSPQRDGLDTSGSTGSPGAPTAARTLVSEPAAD
How it was run: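 Antagonist readout: after 15 min compound preincubation at 37° C, human S1PR5/Gq CHO cells loaded with Fluo 8 dye received an EC80 challenge of S1PR5-specific agonist, and fluorescence was recorded for 3 min. Maximal-over-background ratios, normalized as % inhibition, gave IC50 by logistic fit.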

T1 sequence (P21453 whole entry): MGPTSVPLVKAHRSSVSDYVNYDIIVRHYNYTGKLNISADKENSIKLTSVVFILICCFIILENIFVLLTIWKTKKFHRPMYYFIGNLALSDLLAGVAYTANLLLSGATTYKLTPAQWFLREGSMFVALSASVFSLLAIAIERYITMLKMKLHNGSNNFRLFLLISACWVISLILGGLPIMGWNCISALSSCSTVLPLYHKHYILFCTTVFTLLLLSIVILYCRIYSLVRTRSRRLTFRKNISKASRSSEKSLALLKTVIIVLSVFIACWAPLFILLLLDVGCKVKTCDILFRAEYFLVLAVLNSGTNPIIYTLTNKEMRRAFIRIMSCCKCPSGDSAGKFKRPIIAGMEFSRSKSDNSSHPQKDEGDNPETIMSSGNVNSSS

EC50 [1] [nM] | EC50 (HFL-1 cells [2]) [nM] | EC50 (S1PR2) [nM] | EC50 [3] [nM] | EC50 (HFL-1 cells [4]) [nM] | EC50 [5] [nM] | Structure (SMILES)
≥ 19800 | 64 | 65.6 | 19.2 | 10.4 | 19800 | N#Cc1cc2[nH]c(Cc3nn(CC(=O)N4CCC(O)C(F)(F)C4)c(=O)c4ccccc34)nc2cc1OCC(F)F (stereo not drawn) [Compound 212]
≥ 19800 | 178 | 159 | 41.4 | 70.7 | 19800 | N#Cc1cc2[nH]c(Cc3nn(CC(=O)N4CCC(O)(C5CC5)CC4)c(=O)c4ccccc34)nc2cc1OCC(F)F [Compound 213, 2-[[3-[2-(4-cyclopropyl-4-hydroxy-1-piperidyl)-2-oxo-ethyl]-4-oxo-phthalazin-1-yl)methyl]-6-(2,2-difluoroethoxy)-3H-benzimidazole-5-carbonitrile]
≥ 19800 | 33.4 | 124 | 34.6 | 7.04 | 19800 | N#Cc1cc2[nH]c(Cc3nn(CC(=O)N4CCC(O)(C5CC5)C4)c(=O)c4ccccc34)nc2cc1OCC(F)F (stereo not drawn) [Compound 214, 2-[[3-[2-(3-cyclopropyl-3-hydroxy-pyrrolidin-1-yl)-2-oxo-ethyl]-4-oxo-phthalazin-1-yl]methyl]-6-(2,2-difluoroethoxy)-3H-benzimidazole-5-carbonitrile]
≥ 19800 | 16 | 44.7 | 13 | 12.2 | 19800 | N#Cc1cc2[nH]c(Cc3nn(CC(=O)N4CCC(O)(C(F)(F)F)C4)c(=O)c4ccccc34)nc2cc1OCC(F)F (stereo not drawn) [Compound 216, 6-(2,2-difluoroethoxy)-2-[[3-[2-[3-hydroxy-3-(trifluoromethyl)pyrrolidin-1-yl]-2-oxo-ethyl]-4-oxo-phthalazin-1-yl]methyl]-3H-benzimidazole-5-carbonitrile]
698 | 1.36 | 2.58 | 2.23 | 0.04 | 19800 | O=C(Cc1nn(Cc2nc3cc(OCC4CC4)c(Br)cc3[nH]2)c2ccccc2c1=O)N1C[C@H](O)[C@@H](O)C1 [Compound 217, 1-[[6-bromo-5-(cyclopropylmethoxy)-1H-benzimidazol-2-yl]methyl]-3-[2-[(3S,4S)-3,4-dihydroxypyrrolidin-1-yl]-2-oxo-ethyl]cinnolin-4-one]
≥ 19800 | 15200 | 526 | 1410 | 151 | 19800 | N#Cc1cc2[nH]c(Cc3nn(CC(=O)N4CCN(CC5CC5)CC4)c(=O)c4ccccc34)nc2cc1OCC(F)F [Compound 218, 2-[[3-[2-[4-(cyclopropylmethyl)piperazin-1-yl]-2-oxo-ethyl]-4-oxo-phthalazin-1-yl]methyl]-6-(2,2-difluoroethoxy)-3H-benzimidazole-5-carbonitrile]
≥ 19800 | 84.2 | 82.1 | 14.5 | 16.9 | 19800 | CC1(C)CN(C(=O)Cn2nc(Cc3nc4cc(OCC(F)F)c(C#N)cc4[nH]3)c3ccccc3c2=O)CCO1 [Compound 227, 6-(2,2-difluoroethoxy)-2-[[3-[2-(2,2-dimethylmorpholin-4-yl)-2-oxo-ethyl]-4-oxo-phthalazin-1-yl]methyl]-3H-benzimidazole-5-carbonitrile]
≥ 19800 | 378 | 270 | 13 | 34.2 | 19800 | CC1(C)CCN(C(=O)Cn2nc(Cc3nc4cc(OCC(F)F)c(C#N)cc4[nH]3)c3ccccc3c2=O)CC1 [Compound 234, 6-(2,2-difluoroethoxy)-2-[[3-[2-(4,4-dimethyl-1-piperidyl)-2-oxo-ethyl]-4-oxo-phthalazin-1-yl]methyl]-3H-benzimidazole-5-carbonitrile]
560 | 111 | 299 | 19.2 | 77.3 | 19800 | CS(=O)(=O)NC(=O)Cn1nc(Cc2nc3cc(OCC4CC4)c(Cl)cc3[nH]2)c2ccccc2c1=O [Compound 242, 2-[4-[[6-chloro-5-(cyclopropylmethoxy)-1H-benzimidazol-2-yl]methyl]-1-oxo-phthalazin-2-yl]-N-methylsulfonyl-acetamide]
≥ 19800 | 2580 | 400 | 9 | 764 | 19800 | CS(=O)(=O)NC(=O)Cn1nc(Cn2cc3cc(OCC4CC4)c(Cl)cc3n2)c2ccccc2c1=O [Compound 243, 2-[4-[[6-chloro-5-(cyclopropylmethoxy)indazol-2-yl]methyl]-1-oxo-phthalazin-2-yl]-N-methylsulfonyl-acetamide]
≥ 19800 | 808 | 136 | 8.29 | 21.3 | 19800 | O=C(Cn1nc(Cn2cc3cc(OCC4CC4)c(Cl)cc3n2)c2ccccc2c1=O)NS(=O)(=O)C1CC1 [Compound 244, 2-[4-[[6-chloro-5-(cyclopropylmethoxy)indazol-2-yl]methyl]-1-oxo-phthalazin-2-yl]-N-cyclopropylsulfonyl-acetamide]
≥ 19800 | 11.3 | 50.3 | 8.26 | 3.67 | 19800 | N#Cc1cc2[nH]c(Cc3nn(CC(=O)O)c(=O)c4ccccc34)nc2cc1OCC1CC1 [compound 7, 2-[4-[[6-cyano-5-(cyclopropyl-methoxy)-1H-benzimidazol-2-yl]methyl]-1-oxo-phthalazin-2-yl]acetic acid]
≥ 19800 | 9950 | 2490 | 10700 | 610 | 19800 | N#Cc1cc2nn(Cc3nn(CC(=O)O)c(=O)c4ccccc34)cc2cc1OCC(F)F [compound 8, 2-[4-[[6-cyano-5-(2,2-difluoro-ethoxy)indazol-2-yl]methyl]-1-oxo-phthalazin-2-yl]acetic acid]
≥ 19800 | 3.17 | 11.6 | 4.55 | 0.567 | 19800 | N#Cc1cc2[nH]c(Cn3nc(CC(=O)N4C[C@H](O)[C@@H](O)C4)c(=O)c4ccccc43)nc2cc1OCC1CC1 [compound 10, 6-(cyclopropyl-methoxy)-2-[[3-[2-[(3S,4S)-3,4-dihydroxy-pyrrolidin-1-yl]-2-oxo-ethyl]-4-oxo-cinnolin-1-yl]methyl]-3H-benzimidazole-5-carbonitrile]
≥ 19800 | 694 | 324 | 80 | 59.6 | 19800 | O=C(Cn1nc(Cc2cc3cc(Cl)c(OCC(F)F)cc3[nH]2)c2ccccc2c1=O)N1CCOCC1 [compound 11, 4-[[5-chloro-6-(2,2-difluoro-ethoxy)-1H-indol-2-yl]-methyl]-2-(2-morpholino-2-oxo-ethyl)-phthalazin-1-one]
≥ 19800 | 1100 | 582 | 276 | 143 | 19800 | NC(=O)c1ccc2c(=O)n(CC(=O)N3CCOCC3)nc(Cc3nc4cc(OCC(F)F)c(Cl)cc4[nH]3)c2c1 [compound 12, 4-[[6-chloro-5-(2,2-difluoro-ethoxy)-1H-benzimidazol-2-yl]methyl]-2-(2-morpholino-2-oxo-ethyl)-1-oxo-phthalazine-6-carboxamide]
